Laboratory results from patent publication US4410516A, “1-N(αHydroxy-ω-aminoalkanoyl) derivatives of 5,3',4'-trideoxy- or 5,3', 4'-trideoxy-6'-N- methyl- or 5, 3', 4',6"-tetradeoxykannamyci B and production thereof” (Zaidan Hojin Biseibutsu Kagaku Kenkyu Kai, priority 1981, dated 1983).
≈ marks a conversion by molar mass, not a printed value. Where two headings read alike, the source gives them in different places.

Experiments:
[1] = tested on: Staphylococcus aureus 209P; experiment: Minimum inhibitory concentration, serial dilution on nutrient agar; assay type: cell-based; conditions: 37° C., 18 hours incubation
[2] = tested on: Staphylococcus aureus Smith; experiment: as above; assay type: cell-based; conditions: 37° C., 18 hours incubation
[3] = tested on: Staphylococcus aureus AP01; experiment: as above; assay type: cell-based; conditions: 37° C., 18 hours incubation
[4] = tested on: Staphylococcus epidermidis 109; experiment: as above; assay type: cell-based; conditions: Staphylococcus epidermidis, 109; nutrient agar, 37° C., 18 hours incubation; read-out: MIC
[5] = tested on: Micrococcus flavus FDA 16; experiment: as above; assay type: cell-based; conditions: FDA16, 18 h
[6] = tested on: Bacillus subtilis PCI 219; experiment: as above; assay type: cell-based; conditions: PCI219, 37° C., 18 hours incubation
[7] = tested on: Bacillus cereus ATCC 10702; experiment: as above; assay type: cell-based
[8] = tested on: Mycobacterium smegmatis ATCC 607; experiment: as above; assay type: cell-based; conditions: Mycolicibacterium smegmatis, ATCC607; nutrient agar, 37° C., 18 hours incubation; read-out: MIC
Escherichia coli NIHJ = experiment: as above; assay type: cell-based
[9] = tested on: Escherichia coli K-12 ML 1629; experiment: as above; assay type: cell-based
[10] = tested on: Escherichia coli K-12 LA 290 R55; experiment: as above; assay type: cell-based; conditions: K12LA290R55, 18 h
[11] = tested on: Escherichia coli K-12 LA 290 R56; experiment: as above; assay type: cell-based; conditions: K12LA290R56, 18 h
[12] = tested on: Escherichia coli K-12 LA 290 R64; experiment: as above; assay type: cell-based; conditions: K12LA290R64, 18 h
[13] = tested on: Escherichia coli JR66/W677; experiment: as above; assay type: cell-based
[14] = tested on: Klebsiella pneumoniae PCI 602; experiment: as above; assay type: cell-based
Salmonella typhi T-63 = experiment: as above; assay type: cell-based; conditions: Salmonella enterica, 18 h
Proteus vulgaris OX19 = experiment: as above; assay type: cell-based; conditions: 37° C., 18 hours incubation
Proteus rettgeri GN311 = experiment: as above; assay type: cell-based; conditions: Providencia rettgeri, 37° C., 18 hours incubation
Proteus rettgeri GN466 = experiment: as above; assay type: cell-based; conditions: Providencia rettgeri
Serratia SOU = experiment: as above; assay type: cell-based; conditions: 37° C., 18 hours incubation
Serratia 4 = experiment: as above; assay type: cell-based; conditions: 37° C., 18 hours incubation
[15] = tested on: Pseudomonas aeruginosa A3; experiment: as above; assay type: cell-based; conditions: 37° C., 18 hours incubation
[16] = tested on: Pseudomonas aeruginosa H9; experiment: as above; assay type: cell-based
[17] = tested on: Pseudomonas aeruginosa H11; experiment: as above; assay type: cell-based
[18] = tested on: Pseudomonas aeruginosa B-13; experiment: as above; assay type: cell-based; conditions: B13, 37° C., 18 hours incubation
[19] = tested on: Pseudomonas aeruginosa 21-75; experiment: as above; assay type: cell-based; conditions: 2175, 37° C., 18 hours incubation
[20] = tested on: Pseudomonas aeruginosa PST1; experiment: as above; assay type: cell-based
[21] = tested on: Pseudomonas aeruginosa ROS134/PU21; experiment: as above; assay type: cell-based; conditions: ROS134/PU21, 18 h
[22] = tested on: Pseudomonas aeruginosa K-Ps102; experiment: as above; assay type: cell-based
[23] = tested on: Pseudomonas maltophilia GN907; experiment: as above; assay type: cell-based; conditions: Stenotrophomonas maltophilia, 37° C., 18 hours incubation
[24] = Acute toxicity by intravenous injection in mice; conditions: mouse, in vivo
[25] = ATCC10702, nutrient agar, 37° C., 18 hours incubation, read-out: MIC
[26] = nutrient agar, 37° C., 18 hours incubation, read-out: MIC
[27] = K12ML1629, nutrient agar, 37° C., 18 hours incubation, read-out: MIC
[28] = GN466, nutrient agar, 37° C., 18 hours incubation, read-out: MIC
[29] = KPS102, nutrient agar, 37° C., 18 hours incubation, read-out: MIC
[30] = PST1, nutrient agar, 37° C., 18 hours incubation, read-out: MIC

SMILES | MIC [1] [µg/mL] | MIC [2] [µg/mL] | MIC [3] [µg/mL] | MIC [4] [µg/mL] | MIC [5] [µg/mL] | MIC [6] [µg/mL] | MIC [8] [µg/mL] | MIC [10] [µg/mL] | MIC [11] [µg/mL] | MIC [12] [µg/mL] | MIC (Salmonella typhi T-63) [µg/mL] | MIC (Proteus vulgaris OX19) [µg/mL] | MIC (Proteus rettgeri GN311) [µg/mL] | MIC (Serratia SOU) [µg/mL] | MIC (Serratia 4) [µg/mL] | MIC [15] [µg/mL] | MIC [18] [µg/mL] | MIC [19] [µg/mL] | MIC [21] [µg/mL] | MIC [23] [µg/mL] | further results
NCC(O)C(=O)N[C@@H]1C[C@H](N)[C@@H](O[C@H]2O[C@H](CN)CC[C@H]2N)C[C@H]1O[C@H]1O[C@H](CO)[C@@H](O)[C@H](N)[C@H]1O (stereo partly drawn) [AHP-trideoxyKMB, 1-N-[(RS)-3-amino-2-hydroxypropionyl]-5,3',4'-trideoxykanamycin B] | < 0.2 | < 0.2 | 0.78 (≈ 1.49 µM) | 0.78 (≈ 1.49 µM) | 6.25 (≈ 12 µM) | < 0.2 | 0.2 (≈ 0.383 µM) | 3.13 (≈ 5.99 µM) | 1.56 (≈ 2.99 µM) | 1.56 (≈ 2.99 µM) | 50 (≈ 95.7 µM) | 0.78 (≈ 1.49 µM) | 25 (≈ 47.8 µM) | > 100 | 25 (≈ 47.8 µM) | 0.78 (≈ 1.49 µM) | 12.5 (≈ 23.9 µM) | 12.5 (≈ 23.9 µM) | > 100 | > 100 | MIC [7, 25]: 0.78 µg/mL (≈ 1.49 µM); MIC (Escherichia coli NIHJ; [26]): 1.56 µg/mL (≈ 2.99 µM); MIC [9, 27]: 3.13 µg/mL (≈ 5.99 µM); MIC ([13]; JR66/W677, nutrient agar, 37° C., 18 hours incubation, read-out: MIC): 3.13 µg/mL (≈ 5.99 µM); MIC ([14]; PCI602, nutrient agar, 37° C., 18 hours incubation, read-out: MIC): 1.56 µg/mL (≈ 2.99 µM); MIC (Proteus rettgeri GN466; [28]): 3.13 µg/mL (≈ 5.99 µM); MIC ([16]; H9, nutrient agar, 37° C., 18 hours incubation, read-out: MIC): 3.13 µg/mL (≈ 5.99 µM); MIC ([17]; H11, 18 h): 6.25 µg/mL (≈ 12 µM); MIC ([20]; PST1, 18 h): 6.25 µg/mL (≈ 12 µM); MIC [22, 29]: 3.13 µg/mL (≈ 5.99 µM); LD50 [24]: 25 to 50 mg/kg
CNC[C@@H]1CC[C@@H](N)[C@@H](O[C@H]2C[C@@H](O[C@H]3O[C@H](CO)[C@@H](O)[C@H](N)[C@H]3O)[C@H](NC(=O)C(O)CN)C[C@@H]2N)O1 (stereo partly drawn) [AHP-trideoxyMKMB, 1-N-[(RS)-3-amino-2-hydroxypropionyl]-5,3',4'-trideoxy-6'-N-methylkanamycin B] | 0.39 (≈ 0.727 µM) | < 0.2 | < 0.2 | < 0.2 | 3.13 (≈ 5.83 µM) | 0.39 (≈ 0.727 µM) | 0.39 (≈ 0.727 µM) | 6.25 (≈ 11.6 µM) | 3.13 (≈ 5.83 µM) | 3.13 (≈ 5.83 µM) | 3.13 (≈ 5.83 µM) | 0.78 (≈ 1.45 µM) | 25 (≈ 46.6 µM) | 50 (≈ 93.2 µM) | 12.5 (≈ 23.3 µM) | 0.78 (≈ 1.45 µM) | 25 (≈ 46.6 µM) | 25 (≈ 46.6 µM) | 50 (≈ 93.2 µM) | > 100 | MIC [7, 25]: 1.56 µg/mL (≈ 2.91 µM); MIC (Escherichia coli NIHJ; 18 h): 3.13 µg/mL (≈ 5.83 µM); MIC ([9]; K12ML1629, 18 h): 3.13 µg/mL (≈ 5.83 µM); MIC ([13]; JR66/W677, 18 h): 6.25 µg/mL (≈ 11.6 µM); MIC ([14]; PCI602, 18 h): 3.13 µg/mL (≈ 5.83 µM); MIC (Proteus rettgeri GN466; [28]): 12.5 µg/mL (≈ 23.3 µM); MIC ([16]; H9, 18 h): 3.13 µg/mL (≈ 5.83 µM); MIC ([17]; H11, nutrient agar, 37° C., 18 hours incubation, read-out: MIC): 12.5 µg/mL (≈ 23.3 µM); MIC [20, 30]: 25 µg/mL (≈ 46.6 µM); MIC ([22]; KPS102, 18 h): 3.13 µg/mL (≈ 5.83 µM); LD50 [24]: 50 to 100 mg/kg
NCC[C@H](O)C(=O)N[C@@H]1C[C@H](N)[C@@H](O[C@H]2O[C@H](CN)CC[C@H]2N)[C@H](O)[C@H]1O[C@H]1O[C@H](CO)[C@@H](O)[C@H](N)[C@H]1O [Habekacin, 1-N-[(S)-4-amino-2-hydroxybutyryl]-3',4'-dideoxykanamycin B, reference compound] | 0.39 (≈ 0.706 µM) | < 0.2 | 0.78 (≈ 1.41 µM) | 0.78 (≈ 1.41 µM) | 1.56 (≈ 2.82 µM) | < 0.2 | 0.39 (≈ 0.706 µM) | 6.25 (≈ 11.3 µM) | 3.13 (≈ 5.66 µM) | 3.13 (≈ 5.66 µM) | 1.56 (≈ 2.82 µM) | 0.78 (≈ 1.41 µM) | 50 (≈ 90.5 µM) | > 100 | 50 (≈ 90.5 µM) | 3.13 (≈ 5.66 µM) | 25 (≈ 45.2 µM) | 25 (≈ 45.2 µM) | > 100 | > 100 | MIC ([7]; ATCC10702, 18 h): 1.56 µg/mL (≈ 2.82 µM); MIC (Escherichia coli NIHJ; [26]): 3.13 µg/mL (≈ 5.66 µM); MIC [9, 27]: 3.13 µg/mL (≈ 5.66 µM); MIC ([13]; JR66/W677, 18 h): 6.25 µg/mL (≈ 11.3 µM); MIC ([14]; PCI602, 18 h): 1.56 µg/mL (≈ 2.82 µM); MIC (Proteus rettgeri GN466; GN466, 18 h): 12.5 µg/mL (≈ 22.6 µM); MIC ([16]; H9, 18 h): 6.25 µg/mL (≈ 11.3 µM); MIC ([17]; H11, 18 h): 12.5 µg/mL (≈ 22.6 µM); MIC [20, 30]: 25 µg/mL (≈ 45.2 µM); MIC [22, 29]: 3.13 µg/mL (≈ 5.66 µM)
